# Reference: US12421253B2 (Mirati Therapeutics, Inc., priority 2020, dated 2025)
# pIC50: −log10 of the molar value.
# Key:
# MKN1 cells, pERK = experiment: Inhibition of KRas phosphorylation of ERK (Cisbio HTRF Advanced pERK assay); format: cell-based; settings: Homo sapiens, MKN-1, 3 h, read-out: Inhibition (HTRF IC50 nM) of KRas-mediated Phosphorylation of ERK, MKN1
# How it was run: (§1)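 pERK measured by HTRF in lysates from cells treated 3 h with compound, 10 uM top, 3-fold steps, 10 doses, 0.8% DMSO final. Cells (6,000/well, RPMI 10% FBS) had been plated overnight at 37 °C; 0.2 uM trametinib defined minimum signal; antibody detection 2 h at room temperature.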
# H358 cells, pERK = experiment: as above; format: cell-based; settings: Homo sapiens, NCI-H358, 3 hrs, read-out: Inhibition (HTRF IC50 nM) of KRas-mediated Phosphorylation of ERK, H358
# How it was run: as §1
# H460 cells, pERK = experiment: as above; format: cell-based; settings: Homo sapiens, NCI-H460, 3 hrs, read-out: Inhibition (HTRF IC50 nM) of KRas-mediated Phosphorylation of ERK, H460
# How it was run: as §1
# PSN1 cells, pERK = experiment: as above; format: cell-based; settings: Homo sapiens, PSN1, 3 h, read-out: Inhibition (HTRF IC50 nM) of KRas-mediated Phosphorylation of ERK, PSN1
# How it was run: as §1
# HCT116 cells, pERK = experiment: as above; format: cell-based; settings: Homo sapiens, HCT-116, 3 hrs, read-out: Inhibition (HTRF IC50 nM) of KRas-mediated Phosphorylation of ERK, HCT116
# How it was run: as §1
# H727 cells, pERK = experiment: as above; format: cell-based; settings: Homo sapiens, NCI-H727, 3 h, read-out: Inhibition (HTRF IC50 nM) of KRas-mediated Phosphorylation of ERK, H727
# How it was run: as §1
# ASPC1 cells, pERK = experiment: as above; format: cell-based; settings: Homo sapiens, ASPC1, 3 h, AsPC-1 cells, read-out: Inhibition (HTRF IC50 nM) of KRas-mediated Phosphorylation of ERK, AsPC-1
# How it was run: as §1
# [1] = test system: AsPC-1 (G12D) cells, phospho-ERK; experiment: Inhibition of KRas-mediated phosphorylation of ERK (phospho-ERK/GAPDH antibody detection, LI-COR); format: cell-based; settings: Homo sapiens, ASPC1, 3 hours
# How it was run: (§2)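 Cells seeded 20,000/well, attached 12-14 h, then compound (0.5% DMSO) for 3 h. Formaldehyde-fixed, methanol-permeabilized cells stained for phospho-ERK (Thr202/Tyr204) and GAPDH; infrared imaging. Ratio expressed as % of DMSO control; IC50 from 4-parameter fit.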
# [2] = test system: NCI-H460 (Q61H) cells, phospho-ERK; experiment: as above; format: cell-based; settings: Homo sapiens, 3 hours
# How it was run: as §2
# [3] = test system: NCI-H727 (G12V) cells, phospho-ERK; experiment: as above; format: cell-based; settings: Homo sapiens, 3 hours
# How it was run: as §2
# KRas^G12R = target: T1, KRas^G12R (Homo sapiens, UniProt P01116, G12R); experiment: KRas binding assay (TR-FRET displacement of Cy5 labelled tracer)
# T1 construct: […]; biotin (biotinylated); purchased Accelegan Inc
# T1 sequence (P01116 1-169 isoform P01116-2 G12R): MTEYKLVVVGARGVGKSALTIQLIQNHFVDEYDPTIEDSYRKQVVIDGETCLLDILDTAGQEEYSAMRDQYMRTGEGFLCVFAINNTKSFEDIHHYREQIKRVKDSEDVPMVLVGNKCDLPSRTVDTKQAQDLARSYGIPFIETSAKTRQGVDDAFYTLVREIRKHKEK
# KRas^G12D = target: T2, KRas^G12D (Homo sapiens, UniProt P01116, G12D); experiment: as above
# T2 construct: […]; biotin (biotinylated); purchased Accelegan Inc
# T2 sequence (P01116 1-169 isoform P01116-2 G12D): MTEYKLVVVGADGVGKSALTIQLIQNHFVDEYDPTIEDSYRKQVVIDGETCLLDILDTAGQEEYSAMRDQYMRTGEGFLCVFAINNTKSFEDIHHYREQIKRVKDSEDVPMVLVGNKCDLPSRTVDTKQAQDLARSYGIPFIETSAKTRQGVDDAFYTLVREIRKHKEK
# KRas^G12V = target: T3, KRas^G12V (Homo sapiens, UniProt P01116, G12V); experiment: as above
# T3 construct: […]; biotin (biotinylated); purchased Accelegan Inc
# T3 sequence (P01116 1-169 isoform P01116-2 G12V): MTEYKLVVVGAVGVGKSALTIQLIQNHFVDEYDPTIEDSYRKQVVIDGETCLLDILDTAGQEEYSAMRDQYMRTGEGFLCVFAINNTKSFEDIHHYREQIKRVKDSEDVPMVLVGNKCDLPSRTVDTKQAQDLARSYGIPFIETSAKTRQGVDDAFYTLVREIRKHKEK
# A549 cells, pERK = experiment: Inhibition of KRas phosphorylation of ERK (Cisbio HTRF Advanced pERK assay); format: cell-based; settings: Homo sapiens, 3 hrs, read-out: Inhibition (HTRF IC50 nM) of KRas-mediated Phosphorylation of ERK, A549
# How it was run: as §1
SMILES,"IC50 (MKN1 cells, pERK) [nM]","IC50 (H358 cells, pERK) [nM]","IC50 (H460 cells, pERK) [nM]","IC50 (PSN1 cells, pERK) [nM]","IC50 (HCT116 cells, pERK) [nM]","IC50 (H727 cells, pERK) [nM]","IC50 (ASPC1 cells, pERK) [nM]",pIC50 (KRas^G12R),pIC50 (KRas^G12D),pIC50 (KRas^G12V),"IC50 (A549 cells, pERK) [nM]",IC50 [1] [nM],IC50 [2] [nM],IC50 [3] [nM]
"CCc1c(F)ccc2cc(O)cc(N3CCc4c(nc(OC[C@@]56CCCN5C[C@H](F)C6)nc4N4CCCC(O)CC4)C3)c12 (stereo partly drawn) [Example 30, 1-(7-(8-ethyl-7-fluoro-3-hydroxynaphthalen-1-yl)-2-(((2R,7aS)-2-fluorohexahydro-1H-pyrrolizin-7a-yl)methoxy)-5,6,7,8-tetrahydropyrido[3,4-d]pyrimidin-4-yl)azepan-4-ol]",16,83,203,3510,480,227,86,≥ 8.70,≥ 8.70,≥ 8.70,–,447,309,399
"CCc1c(F)ccc2cc(O)cc(N3CCc4c(nc(OC[C@@]56CCCN5C[C@H](F)C6)nc4N4CCCC5(CNC(=O)N5)C4)C3)c12 (stereo partly drawn) [Example 62, 7-(7-(8-ethyl-7-fluoro-3-hydroxynaphthalen-1-yl)-2-(((2R,7aS)-2-fluorohexahydro-1H-pyrrolizin-7a-yl)methoxy)-5,6,7,8-tetrahydropyrido[3,4-d]pyrimidin-4-yl)-1,3,7-triazaspiro[4.5]decan-2-one]",4,11,69,325,125,81,15,≥ 8.70,≥ 8.70,≥ 8.70,25,–,–,–
"CCc1c(F)ccc2cc(O)cc(N3CCc4c(nc(OC[C@@]56CCCN5C[C@H](F)C6)nc4N4CCCn5nc(C(=O)N(C)C)cc5C4)C3)c12 [Example 66, 5-(7-(8-ethyl-7-fluoro-3-hydroxynaphthalen-1-yl)-2-(((2R,7aS)-2-fluorohexahydro-1H-pyrrolizin-7a-yl)methoxy)-5,6,7,8-tetrahydropyrido[3,4-d]pyrimidin-4-yl)-N,N-dimethyl-5,6,7,8-tetrahydro-4H-pyrazolo[1,5-a][1,4]diazepine-2-carboxamide]",1,2,36,–,62,5,1,≥ 8.70,≥ 8.70,≥ 8.70,5,–,–,–

# Continued, in another order:
"IC50 (MKN1 cells, pERK) [nM]","IC50 (H358 cells, pERK) [nM]","IC50 (H460 cells, pERK) [nM]","IC50 (PSN1 cells, pERK) [nM]","IC50 (HCT116 cells, pERK) [nM]","IC50 (H727 cells, pERK) [nM]","IC50 (ASPC1 cells, pERK) [nM]",pIC50 (KRas^G12R),pIC50 (KRas^G12D),pIC50 (KRas^G12V),"IC50 (A549 cells, pERK) [nM]",SMILES,IC50 [1] [nM],IC50 [2] [nM],IC50 [3] [nM]
7,8,59,148,126,59,10,≥ 8.70,≥ 8.70,≥ 8.70,32,"O=S1(=O)NCC2(CCCN(c3nc(OC[C@@]45CCCN4C[C@H](F)C5)nc4c3CCN(c3cc(O)cc5ccc(F)c(Cl)c35)C4)C2)N1 (stereo partly drawn) [Example 72, 7-(7-(8-chloro-7-fluoro-3-hydroxynaphthalen-1-yl)-2-(((2R,7aS)-2-fluorohexahydro-1H-pyrrolizin-7a-yl)methoxy)-5,6,7,8-tetrahydropyrido[3,4-d]pyrimidin-4-yl)-2-thia-1,3,7-triazaspiro[4.5]decane 2,2-dioxide]",–,–,–
58,50,750,7860,1120,85,53,≥ 8.70,≥ 8.70,≥ 8.70,326,"CCc1c(F)ccc2cc(O)cc(N3CCc4c(nc(OCC56CCCN5CCC6)nc4N4CCCn5nc(C(=O)N(C)C)cc5C4)C3)c12 [Example 175, 5-[7-(8-ethyl-7-fluoro-3-hydroxy-1-naphthyl)-2-(1,2,3,5,6,7-hexahydropyrrolizin-8-ylmethoxy)-6,8-dihydro-5H-pyrido[3,4-d]pyrimidin-4-yl]-N,N-dimethyl-4,6,7,8-tetrahydropyrazolo[1,5-a][1,4]diazepine-2-carboxamide]",–,–,–
